What was measured:
Type in all cases: in vivo
[1] = system: chickweed (common chickweed, Stellaria media); assay: Test D postemergence plant response; details: for Chickweed plant response rating: scale 0 to 100 (0 no effect, 100 complete control); for Plant response rating, Chickweed: scale 0 to 100, 0 no effect, 100 complete control
How it was run: (§1)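 Scores reflect visual plant response relative to untreated controls on a 0 to 100 scale, where 100 means complete control. Treatment was postemergence on 2–18 cm plants in peat-based potting medium, with greenhouse assessment 13–15 days later.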

wild oat (Avena fatua) = assay: Test D postemergence plant response; details: for Plant response rating, Oat, Wild: scale 0 to 100, 0 no effect, 100 complete control
How it was run: as §1

kochia (Kochia scoparia) [2] = assay: Test D postemergence plant response; details: for Plant response rating, Kochia: scale 0 to 100, 0 no effect, 100 complete control
How it was run: as §1

[3] = system: ragweed (common ragweed, Ambrosia elatior); assay: Test B pre-/postemergence plant response
How it was run: (§2)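 Seeds in loam–sand blend given preemergence soil spray; separately, plants at one- to two-leaf stage (2–10 cm) sprayed postemergence, compounds in non-phytotoxic solvent with surfactant. Injury rated visually versus untreated controls after ~10 days in greenhouse, 0 (no effect) to 100 (complete control).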

[4] = system: wheat (Triticum aestivum); assay: Test B pre-/postemergence plant response
How it was run: as §2

[5] = system: pigweed (Amaranthus retroflexus); assay: Test B pre-/postemergence plant response
How it was run: as §2

kochia (Kochia scoparia) [6] = assay: Test B pre-/postemergence plant response
How it was run: as §2

[7] = system: Italian ryegrass (Lolium multiflorum); assay: Test B pre-/postemergence plant response
How it was run: as §2

corn (Zea mays) = assay: Test B pre-/postemergence plant response
How it was run: as §2

[8] = system: barnyardgrass (Echinochloa crus-galli); assay: Test B pre-/postemergence plant response
How it was run: as §2

[9] = system: giant foxtail (Setaria faberii); assay: Test B pre-/postemergence plant response
How it was run: as §2

[10] = system: blackgrass (Alopecurus myosuroides); assay: Test B postemergence plant response
How it was run: (§3)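 Weeds grown in loam soil/sand pots were sprayed postemergence at 2 to 10 cm height, one- to two-leaf stage. After approximately 10 days in greenhouse, injury was rated visually against untreated controls on a 0 (no effect) to 100 (complete control) scale; dash means no test result.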

[11] = system: galium (catchweed bedstraw, Galium aparine); assay: Test B postemergence plant response
How it was run: as §3

[12] = system: barnyardgrass (Echinochloa crus-galli); assay: Test C flooded paddy test plant response; details: Flood, 250 g ai/ha; scale of 0 to 100 where 0 is no effect and 100 is complete control; 13 to 15 days
How it was run: (§4)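 Visual injury ratings (0, no effect; 100, complete control) were assigned after 13 to 15 days in a greenhouse, comparing treated plants with controls. Compounds had been added straight into paddy water over 2-leaf-stage plants flooded to 3 cm.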

[13] = system: small-flower umbrella sedge (Cyperus difformis); assay: Test C flooded paddy test plant response; details: Flood, 250 g ai/ha; scale of 0 to 100 where 0 is no effect and 100 is complete control; 13 to 15 days
How it was run: as §4

[14] = system: ducksalad (Heteranthera limosa); assay: Test C flooded paddy test plant response; details: Flood, 250 g ai/ha; scale of 0 to 100 where 0 is no effect and 100 is complete control; 13 to 15 days
How it was run: as §4

rice (Oryza sativa) = assay: Test C flooded paddy test plant response; details: Flood, 250 g ai/ha; scale of 0 to 100 where 0 is no effect and 100 is complete control; 13 to 15 days
How it was run: as §4

[15] = 31 g ai/ha, scale 0 to 100 (0 no effect, 100 complete control)
[16] = 31 g ai/ha, Preemergence, 0 to 100 scale where 0 is no effect and 100 is complete control
[17] = 125 g ai/ha, postemergence, 0 to 100 scale, 0 no effect, 100 complete control
[18] = Postemergence, 31 g ai/ha, 0 to 100 scale (0 no effect, 100 complete control)
[19] = Preemergence, 125 g ai/ha, 0 to 100 scale (0 no effect, 100 complete control)

FC(F)(Br)c1cc(-c2ccccc2Oc2ncc(Cl)cn2)no1 [Compound 162]
30: Plant response rating, Wheat [4, 17] | Plant response rating, Blackgrass [10, 17] | Plant response rating, Blackgrass [10, 18]
60: Chickweed plant response rating ([1]; 31 g ai/ha) | Plant response rating, Chickweed ([1]; 62 g ai/ha)
50: Chickweed plant response rating ([1]; 16 g ai/ha) | Plant response rating, Ryegrass, Italian [7, 17]
10: Plant response rating, Oat, Wild (wild oat (Avena fatua); 125 g ai/ha) | Plant response rating, Barnyardgrass [8, 18] | Plant response rating, Foxtail, Giant [9, 18]
0: Plant response rating, Ragweed [3, 16] | Plant response rating, Ragweed [3, 18] | Plant response rating, Ryegrass, Italian [7, 16] | Plant response rating, Ryegrass, Italian [7, 18] | Barnyardgrass plant response rating [12] | Sedge, Umbrella plant response rating [13] | Ducksalad plant response rating [14] | Rice plant response rating (rice (Oryza sativa))
20: Ragweed plant response rating [3, 19] | Plant response rating, Wheat [4, 18] | Plant response rating, Corn (corn (Zea mays); [18]) | Plant response rating, Barnyardgrass [8, 16]
40: Plant response rating, Ragweed [3, 17] | Ryegrass, Italian plant response rating [7, 19] | Plant response rating, Corn (corn (Zea mays); [17])
80: Plant response rating, Pigweed [5, 16]
85: Plant response rating, Chickweed ([1]; 125 g ai/ha)
5: Oat, Wild plant response rating (wild oat (Avena fatua); [15]) | Plant response rating, Oat, Wild (wild oat (Avena fatua); 62 g ai/ha)
70: Plant response rating, Kochia (kochia (Kochia scoparia) [6]; [16]) | Kochia plant response rating (kochia (Kochia scoparia) [6]; [19])
90: Plant response rating, Kochia (kochia (Kochia scoparia) [6]; [18]) | Plant response rating, Barnyardgrass [8, 17] | Plant response rating, Foxtail, Giant [9, 16] | Plant response rating, Foxtail, Giant [9, 17] | Plant response rating, Galium [11, 17] | Plant response rating, Galium [11, 18]
100: Kochia plant response rating (kochia (Kochia scoparia) [2]; [15]) | Plant response rating, Kochia (kochia (Kochia scoparia) [2]; 62 g ai/ha) | Plant response rating, Kochia (kochia (Kochia scoparia) [2]; 125 g ai/ha) | Plant response rating, Pigweed [5, 17] | Plant response rating, Pigweed [5, 18] | Pigweed plant response rating [5, 19] | Plant response rating, Kochia (kochia (Kochia scoparia) [6]; [17]) | Barnyardgrass plant response rating [8, 19] | Foxtail, Giant plant response rating [9, 19]

Reference: US10131652B2, “Pyrimidinyloxy benzene derivatives as herbicides” (E. I. DU PONT DE NEMOURS AND COMPANY, priority 2014, dated 2018)
